For 78 compounds, RP-LC retention time results are on record in the METLIN SMRT retention time set (Domingo-Almenara et al. 2019).

The data set can be described thus: gradient 5% acetonitrile 3 min, to 50% in 2 min, to 85% in 15 min, held 3 min, 100 µL/min. To be noted: column: Zorbax Extend-C18 2.1 x 50 mm; eluents: water / acetonitrile, 0.1% formic acid. Put shortly: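 Retention time was recorded from adduct peaks, which were picked computationally and each inspected manually. Pure standards ran in mixtures of ~100 molecules on HPLC coupled to a quadrupole time-of-flight mass spectrometer, in positive and negative ionization mode, through a Zorbax Extend-C18 column (2.1 × 50 mm, 1.8 μm) at 100 μL/min. Eluents were water and acetonitrile, each with 0.1% formic acid.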
With `CCc1ccccc1NC(=O)CN1C(=O)NC2(CCC(C)CC2)C1=O` (stereo not drawn), the RP-LC retention time stood at 698 s.
`CC(NC(=O)C1CCN(C(=O)c2ncn3c2COC(c2ccccc2)C3)CC1)c1ccccc1` (stereo not drawn) displayed an RP-LC retention time of 754 s.
`COc1cc2c(cc1OC)C(/C=C/c1ccco1)=NCC2`: the RP-LC retention time stood at 693 s.
The result for `COc1ccc(NS(=O)(=O)c2c(C)sc(C)c2-c2cc(C(F)(F)F)on2)cc1OC` reads 1020 s; that for `CCCCN1C(=O)C(C)(C(=O)NCc2cc(F)cc(F)c2)Oc2cccnc21` (stereo not drawn), 1020 s.
To `COc1ccc(OC)c(NC(=O)N(C)CCc2noc(COc3ccccc3F)n2)c1` belongs 932 s; to `COC(=O)c1c(C)[nH]c(C(=O)N2CCC(CC(=O)NCc3ccc(C)o3)CC2)c1C`, 702 s.
`COc1ccccc1CNC(=O)Cn1ccc2ccc(-c3nnc(C)o3)cc21` registered an RP-LC retention time of 763 s.
Compound `COc1ccc(NC(=O)Cn2c(=O)n(-c3ccc(C)cc3)c3ncccc32)c(C)c1` yielded an RP-LC retention time of 833 s.
To `CCOc1ccc(CCNC(=O)C2CCCN(c3ncnc4c3nc3n4CCCCC3)C2)cc1` (stereo not drawn) belongs 807 s; to `Cc1nnc([C@@H]2CC(F)(F)CN2C(=O)c2nn(C)c3ccccc23)o1`, 788 s; to `O=S(=O)(Nc1ccccc1)c1cccnc1Nc1ccc(F)cc1`, 1020 s.
The result for `Cc1noc(-c2cccnc2N2CCCN(Cc3ccc(F)cc3)CC2)n1` reads 634 s.
Compound `CC(NC(=O)c1ccccc1)c1nc(-c2ccc(NS(C)(=O)=O)cc2)no1` (stereo not drawn) yielded an RP-LC retention time of 766 s.
`Cc1nnc2nc(-c3ccccc3)nc(-c3ccccc3)n12`: the RP-LC retention time was 1130 s.
As to `Cc1[nH]c(=O)[nH]c(=O)c1CCc1nnc(SCC(=O)c2ccc3c(c2)NC(=O)CO3)o1`, the RP-LC retention time came to 589 s.
The result for `Cc1ccc(C(=O)N2CCCC2c2nc(-c3cccc(Cl)c3)no2)c(C)c1` (stereo not drawn) reads 1200 s; that for `COCCN(CCOC)c1ncnc2c1cnn2-c1ccc(C)cc1C`, 902 s.
As to `CCc1ccc(S(=O)(=O)N2CCc3c(c(-c4nc(C5CC5)no4)nn3C)C2)cc1`, the RP-LC retention time amounted to 1020 s.
Turning to `Cc1ccc(C)c(CNc2nc3ccncc3n(Cc3ccccc3)c2=O)c1`, the RP-LC retention time is 798 s.
The result for `CCOC(=O)c1[nH]c(C)c(CCC(=O)N2CCC(C(=O)NCCc3ccccc3OC)CC2)c1C` reads 812 s; that for `O=C(CC1CCCCN1S(=O)(=O)c1ccccc1)Nc1cc(F)ccc1F` (stereo not drawn), 887 s; that for `COc1ccc(-n2nnc3c(SCc4cccc([N+](=O)[O-])c4)ncnc32)cc1`, 1100 s.
`COc1ccc(C(=O)Nc2nc(CC(=O)Nc3nc4c(C)cccc4s3)cs2)cc1`: the RP-LC retention time amounted to 1010 s.
The result for `CCS(=O)(=O)N1CC(n2cc(C(=O)NCC3CC3)nn2)C1` reads 664 s; that for `CC1(C)CCCC2(C)C3=C(CCC12)C(=O)OC3` (stereo not drawn), 1270 s; that for `CC1CCc2nc3ncn(CC(=O)Nc4ccc(Cl)cc4F)c(=O)c3cc2C1` (stereo not drawn), 858 s.
The compound `CC1CC(=O)c2cnc(N3CCN(c4ncccn4)CC3)nc2C1` (stereo not drawn) yielded an RP-LC retention time of 798 s.
`Cc1cc(-c2nnc(-c3ccc(F)cc3)o2)c(C)n1CC(=O)Nc1ccc2c(c1)OCO2` returned an RP-LC retention time of 938 s.
For `COc1cccc(NC(=O)N2CCc3c(c(-c4nnc(-c5ccc(F)cc5)o4)nn3C)C2)c1`, the RP-LC retention time turned out to be 833 s.
To `Cc1noc2ncn(CC(=O)NCc3ccc(F)cc3)c(=O)c12` belongs 724 s.
`COc1cccc(N2CCN(c3cc(SCC(=O)NCc4ccccc4)ncn3)CC2)c1` registered an RP-LC retention time of 891 s.
Take `C=CCn1ccc2c(OCC(=O)Nc3cc(C)on3)cccc2c1=O`: the RP-LC retention time was found to be 750 s.
To `CS(=O)(=O)N1CCC(C(=O)Nc2sccc2C#N)CC1` belongs 662 s; to `Cn1nccc1C(=O)Nc1ccc(OCc2nnc(-c3ccccc3)o2)cc1`, 786 s.
The result for `COc1ccc(F)cc1S(=O)(=O)NCC1(C)CCOCC1` reads 785 s; that for `CCc1cc(OCC(=O)N2CCN(c3ccccn3)CC2)nc2c1c(C)nn2-c1ccc(C)cc1`, 790 s; that for `O=C(NCC1CCCO1)N1CCc2[nH]nc(-c3ccccc3)c2C1` (stereo not drawn), 644 s.
In turn, `CCSc1nc(O)cc(=O)[nH]1` had an RP-LC retention time of 628 s.
The result for `CN(C)c1ccc(C(=O)NC2CCN(c3ccccc3)C2=O)cc1` (stereo not drawn) reads 713 s.
In turn, `Cc1ccc(-c2nc(CN(c3ccccc3)S(=O)(=O)c3cccs3)c(C)o2)cc1` returned an RP-LC retention time of 1200 s.
Compound `Cc1ccc(CNC(=O)C2CCN(S(=O)(=O)c3ccc4c(c3)NC(=O)CO4)CC2)o1` registered an RP-LC retention time of 715 s.
Compound `CN1CCN(c2c(F)cc(C(=O)Nc3nc(-c4ccccc4)cs3)c(F)c2F)CC1` returned an RP-LC retention time of 750 s.
The compound `CCc1ccc(S(=O)(=O)N2CCc3nc(-c4ccc(F)cc4)ncc3C2)cc1` had an RP-LC retention time of 1190 s.
To `COc1ccc(C2C(C(=O)NCCC(C)C)CCC(=O)N2c2cc(OC)c(OC)c(OC)c2)cc1` (stereo not drawn) belongs 744 s.
The result for `COc1ccc(OC)c(S(=O)(=O)N2CC(=O)N(C3CCCC3)C3(CCCCC3)C2)c1` reads 1090 s; that for `Cc1ccc(N2CC(c3nc(-c4ccc5c(c4)ncn5C)no3)CC2=O)cc1C` (stereo not drawn), 702 s; that for `COc1ccc(-c2nc(Cc3noc(-c4ccccc4OC)n3)c(C)o2)cc1`, 1070 s.
As for `Cc1ccc(C)c(N2CCN(Cc3nc(-c4ccc(N5CCC(C)CC5)nc4)no3)CC2)c1`, the RP-LC retention time was found to be 1270 s.
The result for `CC(=O)N1CCC2(CC1)OC(=O)C(C)=C2C(=O)NCCCN1CCN(c2cc(C)ccc2C)CC1` reads 639 s; that for `Cc1ccc(-c2cc3c4nnc(SCC(=O)Nc5cc(F)ccc5C)n4ccn3n2)cc1C`, 1080 s; that for `N#CC1=C(SCC(=O)Nc2nccs2)NC2=C(C(=O)CCC2)C1c1ccco1` (stereo not drawn), 674 s.
For the compound `CCOc1ccc(CC(=O)NCC(=O)Nc2nc3ccccc3[nH]2)cc1OCC`, the RP-LC retention time came out at 652 s.
To `CCOC(=O)c1cccc(N2C=C(C#N)S(=O)(=O)c3ccc(C)cc32)c1` belongs 969 s; to `COc1ccc(C2Cn3nnc(-c4nc(-c5ccc(F)c(Br)c5)no4)c3CO2)cc1` (stereo not drawn), 1180 s; to `CN(C)CCCNC(=O)C1CCN(c2nc3ccc(-c4ccccc4)nc3s2)CC1`, 668 s.
To `Cc1ccc(NC(=O)Cn2ccc3ccc(-c4nnc(C)o4)cc32)nc1` belongs 690 s.
Compound `COc1ccc(NC(=O)N2c3ccccc3CC2c2nc(C3CC3)no2)c(OC)c1` (stereo not drawn) gave an RP-LC retention time of 1030 s.
As to `CN1c2cc(C(=O)N3CCN(c4ccc(F)cc4)CC3)ccc2C(=O)N2CCCCC21` (stereo not drawn), the RP-LC retention time turned out to be 840 s.
Take `Cc1cc2c(SCC(=O)N3CCCc4ccccc43)ncnc2s1`: the RP-LC retention time was 950 s.
The result for `Cc1ccc(-c2nc3ccccn3c2CCC(=O)Nc2ccc(Br)cc2C)cc1` reads 770 s.
Turning to `O=C(C1CCC1)N1CCC(Oc2cc(N3CCOCC3)ncn2)C1` (stereo not drawn), the RP-LC retention time came to 670 s.
As to `CC(C)(C)c1ccc(C(CNC(=O)c2cc(-c3ccc4c(c3)OCCO4)on2)N2CCCC2)cc1` (stereo not drawn), the RP-LC retention time is 844 s.
To `Cc1ccc(Nc2c(-c3ccccc3)nc3cccc(C)n23)cc1` belongs 757 s.
To `COc1ccc(C)cc1NC(=O)N1CCN(c2ccc(-c3ccc4c(c3)OCO4)nn2)CC1` belongs 659 s; to `CCCNc1nc(-c2ccc(C3CCCCC3)cc2)cs1`, 1170 s.
The result for `O=C(Cn1nc2c3cc(-c4ccc(F)cc4)nn3ccn2c1=O)Nc1ccccc1Br` reads 945 s; that for `Cc1ccc(Cl)cc1N1CCN(C(=O)c2cc3sccc3n2C)CC1`, 984 s.
In the case of `CCOC(=O)c1c(C)c(CCC(=O)NCCN2CCCCCC2)c(C)n1C`, the RP-LC retention time amounted to 656 s.
To `CCn1ccc(C(=O)Nc2ccc3ncnc(N4CCCC4)c3c2)n1` belongs 616 s; to `CC(C)(C)NCC(O)COc1ccc(NC(=O)NC2CCCCC2)cc1` (stereo not drawn), 628 s; to `Cc1cccc(Oc2cc(N3CCC(C(=O)NCCC4=CCCCC4)CC3)ncn2)c1C`, 1110 s.
The compound `O=C(Cc1cccs1)N1CCC(c2nnc(C(F)(F)F)o2)CC1` returned an RP-LC retention time of 752 s.
`O=C(c1cc(-c2ccncc2)n[nH]1)N1CCCC(C(=O)N2CCN(c3ccc(Cl)cc3)CC2)C1` (stereo not drawn) showed an RP-LC retention time of 661 s.
With `CCOC(=O)c1c(NCCc2cccs2)c2cccc(Cl)c2[nH]c1=O`, the RP-LC retention time is 844 s.
Regarding `CCN1CCn2cc(S(=O)(=O)N3CCN(c4cccc(Cl)c4)CC3)cc2C1=O`, the RP-LC retention time came to 872 s.
On to `CCCc1nc(NCc2ccccn2)ncc1C(=O)O`, for which the RP-LC retention time worked out at 571 s.
The compound `O=C(NCCc1csc(-c2ccccc2)n1)C1CCN(C(=O)CCc2ccccc2)CC1` gave an RP-LC retention time of 859 s.
